Results as given in patent publication US20070128217A1 (priority 2003, published 2007).

Assays:
[1] = system: antibodies in sera from SARS patients (sera 1a, 1b, 2, 6, 37, 62, London, SARS-yellow, SARS-green); type: binding, human; set-up: Binding of serum 6 to linear peptides of protein X1 of SARS-CoV Urbani / Binding of serum 37 to linear peptides of protein X1 of SARS-CoV Urbani / Binding of serum 6 to looped/cyclic peptide (PEPSCAN-ELISA) / Binding of serum 37 to looped/cyclic peptide (PEPSCAN-ELISA) / Binding of serum 37 to looped/cyclic peptides of protein X1 of SARS-CoV Urbani / Binding of serum 6 to linear peptides of protein X2 / Binding of serum 37 to linear peptides of protein X2 / Binding of serum 37 to looped/cyclic peptides of protein X2 of SARS-CoV Urbani / Binding of serum 6 to linear peptides of protein M of SARS-CoV Urbani / Binding of serum 37 to linear peptides of protein M of SARS-CoV Urbani / Binding of serum 6 to looped/cyclic peptides of protein M of SARS-CoV Urbani / Binding of serum 37 to looped/cyclic peptides of protein M of SARS-CoV Urbani / Binding of serum 6 to linear peptides of protein X3 of SARS-CoV Urbani / Binding of serum 37 to linear peptides of protein X3 of SARS-CoV Urbani / Binding of serum 37 to looped/cyclic peptides of protein X3 of SARS-CoV Urbani / Binding of serum 6 to linear peptides of protein X4 of SARS-CoV Urbani / Binding of serum 37 to linear peptides of protein X4 of SARS-CoV Urbani / Binding of serum 37 to looped/cyclic peptides of protein X4 of SARS-CoV Urbani / Binding of serum 6 to linear peptides of protein X5 of SARS-CoV Urbani / Binding of serum 37 to linear peptides of protein X5 of SARS-CoV Urbani / Binding of serum 37 to looped/cyclic peptides of protein X5 of SARS-CoV Urbani / Binding of serum 6 to linear peptides of protein N of SARS-CoV Urbani / Binding of serum 37 to linear peptides of protein N of SARS-CoV Urbani / Binding of serum 6 to linear peptide (PEPSCAN-ELISA) / Binding of serum 1a to looped/cyclic peptides of protein N of SARS-CoV Urbani / Binding of serum 1b to looped/cyclic peptides of protein N of SARS-CoV Urbani / Binding of serum 2 to looped/cyclic peptides of protein N of SARS-CoV Urbani / Binding of serum 6 to looped/cyclic peptides of protein N of SARS-CoV Urbani / Binding of serum 37 to looped/cyclic peptides of protein N of SARS-CoV Urbani / Binding of serum 62 to looped/cyclic peptides of protein N of SARS-CoV Urbani / Binding of serum London to looped/cyclic peptides of protein N of SARS-CoV Urbani / Binding of serum SARS-green to looped/cyclic peptides of protein N of SARS-CoV Urbani: unit not given here
[2] = system: control sera (pooled serum of ten healthy LUMC hospital workers; commercial negative donor pooled serum from the Dutch bloodbank); type: binding, human; set-up: Binding of Control serum LUMC to linear peptides / Binding of Control serum Blood-bank to linear peptides / Binding of Control serum LUMC to looped peptides / Binding of Control Serum Blood-Bank to Looped peptides / Binding of Control serum LUMC to linear peptides of the protein M of SARS-CoV Urbani / Binding of Control serum Blood-bank to linear peptides of the protein M of SARS-CoV Urbani / Binding of Control serum LUMC to looped peptides of the protein M of SARS-CoV Urbani / Binding of Control Serum Blood-Bank to Looped peptides of the protein M of SARS-CoV Urbani: unit not given here
[3] = system: rabbit serum obtained by immunizing a rabbit with the SARS-CoV strain Frankfurt 1; type: binding; set-up: Binding of a rabbit serum to linear peptides / Binding of a rabbit serum to looped peptides / Rabbit serum linear peptides / Rabbit serum looped peptides / Binding of a rabbit serum to linear peptides of protein N of SARS-CoV Urbani (Rabbit serum linear peptides) / Binding of a rabbit serum to looped/cyclic peptides of protein N of SARS-CoV Urbani (Rabbit serum looped peptides): unit not given here

LLLVAAGMEAQFLYL
0.5: Binding of serum 1b to looped/cyclic peptide (PEPSCAN-ELISA) [1] | Binding of serum 6 to linear peptides of protein X1 of SARS-CoV Urbani [1] | Binding of serum SARS-green to looped/cyclic peptide (PEPSCAN-ELISA) [1] | Binding of Control Serum Blood-Bank to Looped peptides [2] | Binding of a rabbit serum to looped peptides [3]
0.2: Binding of serum London to linear peptides of protein X1 of SARS-CoV Urbani [1] | Binding of serum London to looped/cyclic peptide (PEPSCAN-ELISA) [1] | Binding of a rabbit serum to linear peptides [3]
1.0: Binding of Control serum LUMC to linear peptides [2]
0.3: Binding of serum 6 to looped/cyclic peptide (PEPSCAN-ELISA) [1]
0.8: Binding of serum 1b to linear peptides of protein X1 of SARS-CoV Urbani [1]
0.7: Binding of serum 37 to looped/cyclic peptide (PEPSCAN-ELISA) [1] | Binding of serum 62 to looped/cyclic peptide (PEPSCAN-ELISA) [1] | Binding of Control serum LUMC to looped peptides [2]
0.1: Binding of serum SARS-green to linear peptides of protein X1 of SARS-CoV Urbani [1]
0.9: Binding of serum 1a to linear peptides of protein X1 of SARS-CoV Urbani [1]
0.6: Binding of serum 1a to looped/cyclic peptide (PEPSCAN-ELISA) [1] | Binding of serum 2 to linear peptides of protein X1 of SARS-CoV Urbani [1] | Binding of serum 2 to looped/cyclic peptide (PEPSCAN-ELISA) [1] | Binding of serum 37 to linear peptides of protein X1 of SARS-CoV Urbani [1] | Binding of serum 62 to linear peptides of protein X1 of SARS-CoV Urbani [1] | Binding of serum SARS-yellow to linear peptides of protein X1 of SARS-CoV Urbani [1] | Binding of serum SARS-yellow to looped/cyclic peptide (PEPSCAN-ELISA) [1] | Binding of Control serum Blood-bank to linear peptides [2]

QELLIQQWIQFMMSR
1.2: Binding of serum London to looped/cyclic peptides of protein X2 of SARS-CoV Urbani [1]
0.7: Binding of serum 1a to linear peptides of protein X2 [1] | Binding of serum 62 to looped/cyclic peptides of protein X2 of SARS-CoV Urbani [1] | Binding of Control Serum Blood-Bank to Looped peptides [2]
0.3: Binding of serum 6 to linear peptides of protein X2 [1] | Binding of serum SARS-green to looped/cyclic peptides of protein X2 of SARS-CoV Urbani [1] | Binding of Control serum LUMC to linear peptides [2] | Binding of a rabbit serum to linear peptides [3]
0.6: Binding of serum 2 to looped/cyclic peptides of protein X2 of SARS-CoV Urbani [1] | Binding of serum 6 to looped/cyclic peptides of protein X2 of SARS-CoV Urbani [1] | Binding of serum SARS-green to linear peptides of protein X2 [1] | Binding of serum SARS-yellow to linear peptides of protein X2 [1]
0.4: Binding of serum 1b to linear peptides of protein X2 [1] | Binding of serum 2 to linear peptides of protein X2 [1] | Binding of serum London to linear peptides of protein X2 [1] | Binding of a rabbit serum to looped peptides [3]
0.5: Binding of serum 1a to looped/cyclic peptides of protein X2 of SARS-CoV Urbani [1] | Binding of serum 1b to looped/cyclic peptides of protein X2 of SARS-CoV Urbani [1] | Binding of serum 37 to linear peptides of protein X2 [1] | Binding of serum 37 to looped/cyclic peptides of protein X2 of SARS-CoV Urbani [1] | Binding of serum 62 to linear peptides of protein X2 [1] | Binding of serum SARS-yellow to looped/cyclic peptides of protein X2 of SARS-CoV Urbani [1] | Binding of Control serum Blood-bank to linear peptides [2] | Binding of Control serum LUMC to looped peptides [2]

QWIQFMMSRRRLLAC
0.3: Binding of serum 2 to looped/cyclic peptides of protein X2 of SARS-CoV Urbani [1] | Binding of serum 6 to looped/cyclic peptides of protein X2 of SARS-CoV Urbani [1] | Binding of Control Serum Blood-Bank to Looped peptides [2]
2.0: Binding of a rabbit serum to looped peptides [3]
0.2: Binding of serum London to looped/cyclic peptides of protein X2 of SARS-CoV Urbani [1]
1.0: Binding of a rabbit serum to linear peptides [3]
0.8: Binding of Control serum Blood-bank to linear peptides [2]
0.7: Binding of serum 1a to linear peptides of protein X2 [1] | Binding of serum 6 to linear peptides of protein X2 [1]
0.6: Binding of serum 37 to linear peptides of protein X2 [1] | Binding of serum 62 to linear peptides of protein X2 [1] | Binding of serum SARS-yellow to linear peptides of protein X2 [1]
0.5: Binding of serum 1a to looped/cyclic peptides of protein X2 of SARS-CoV Urbani [1] | Binding of serum 1b to linear peptides of protein X2 [1] | Binding of serum 2 to linear peptides of protein X2 [1] | Binding of serum 37 to looped/cyclic peptides of protein X2 of SARS-CoV Urbani [1] | Binding of serum 62 to looped/cyclic peptides of protein X2 of SARS-CoV Urbani [1] | Binding of serum London to linear peptides of protein X2 [1] | Binding of serum SARS-green to linear peptides of protein X2 [1] | Binding of Control serum LUMC to linear peptides [2]
0.4: Binding of serum 1b to looped/cyclic peptides of protein X2 of SARS-CoV Urbani [1] | Binding of serum SARS-green to looped/cyclic peptides of protein X2 of SARS-CoV Urbani [1] | Binding of serum SARS-yellow to looped/cyclic peptides of protein X2 of SARS-CoV Urbani [1] | Binding of Control serum LUMC to looped peptides [2]

TSCELYHYQECVRGT
0.7: Binding of serum 1a to linear peptides of protein X4 of SARS-CoV Urbani [1] | Binding of serum 2 to looped/cyclic peptides of protein X4 of SARS-CoV Urbani [1] | Binding of serum 6 to linear peptides of protein X4 of SARS-CoV Urbani [1] | Binding of serum 37 to linear peptides of protein X4 of SARS-CoV Urbani [1] | Binding of serum 37 to looped/cyclic peptides of protein X4 of SARS-CoV Urbani [1] | Binding of serum 62 to looped/cyclic peptides of protein X4 of SARS-CoV Urbani [1] | Binding of serum London to linear peptides of protein X4 of SARS-CoV Urbani [1] | Binding of serum SARS-green to looped/cyclic peptides of protein X4 of SARS-CoV Urbani [1]
0.5: Binding of serum SARS-green to linear peptides of protein X4 of SARS-CoV Urbani [1]
0.4: Binding of serum London to looped/cyclic peptides of protein X4 of SARS-CoV Urbani [1] | Binding of serum SARS-yellow to looped/cyclic peptides of protein X4 of SARS-CoV Urbani [1] | Rabbit serum linear peptides [3]
0.9: Binding of serum 1a to looped/cyclic peptides of protein X4 of SARS-CoV Urbani [1] | Binding of serum 1b to looped/cyclic peptides of protein X4 of SARS-CoV Urbani [1] | Binding of serum 6 to looped/cyclic peptides of protein X4 of SARS-CoV Urbani [1]
0.2: Rabbit serum looped peptides [3]
0.3: Binding of serum 2 to linear peptides of protein X4 of SARS-CoV Urbani [1] | Binding of serum SARS-yellow to linear peptides of protein X4 of SARS-CoV Urbani [1]
0.6: Binding of serum 1b to linear peptides of protein X4 of SARS-CoV Urbani [1] | Binding of Control serum Blood-bank to linear peptides [2] | Binding of Control serum LUMC to linear peptides [2]
0.8: Binding of serum 62 to linear peptides of protein X4 of SARS-CoV Urbani [1] | Binding of Control Serum Blood-Bank to Looped peptides [2] | Binding of Control serum LUMC to looped peptides [2]

TALQELLIQQWIQFM
0.3: Binding of serum 2 to linear peptides of protein X2 [1] | Binding of serum 6 to looped/cyclic peptides of protein X2 of SARS-CoV Urbani [1]
0.7: Binding of serum 1a to looped/cyclic peptides of protein X2 of SARS-CoV Urbani [1] | Binding of serum 62 to looped/cyclic peptides of protein X2 of SARS-CoV Urbani [1] | Binding of Control Serum Blood-Bank to Looped peptides [2] | Binding of Control serum Blood-bank to linear peptides [2] | Binding of Control serum LUMC to looped peptides [2]
0.6: Binding of serum 1b to linear peptides of protein X2 [1]
0.5: Binding of serum 1b to looped/cyclic peptides of protein X2 of SARS-CoV Urbani [1] | Binding of serum 37 to linear peptides of protein X2 [1] | Binding of serum 37 to looped/cyclic peptides of protein X2 of SARS-CoV Urbani [1] | Binding of serum 62 to linear peptides of protein X2 [1] | Binding of serum SARS-green to linear peptides of protein X2 [1] | Binding of serum SARS-green to looped/cyclic peptides of protein X2 of SARS-CoV Urbani [1] | Binding of serum SARS-yellow to looped/cyclic peptides of protein X2 of SARS-CoV Urbani [1]
0.4: Binding of serum 2 to looped/cyclic peptides of protein X2 of SARS-CoV Urbani [1] | Binding of serum London to linear peptides of protein X2 [1] | Binding of serum SARS-yellow to linear peptides of protein X2 [1] | Binding of Control serum LUMC to linear peptides [2] | Binding of a rabbit serum to linear peptides [3] | Binding of a rabbit serum to looped peptides [3]
0.8: Binding of serum 1a to linear peptides of protein X2 [1]
0.2: Binding of serum 6 to linear peptides of protein X2 [1] | Binding of serum London to looped/cyclic peptides of protein X2 of SARS-CoV Urbani [1]
